Source: publication PMC9652263 (Investigational New Drugs, 2022)
“And” between values parts separate entries of the source, which are not always exact repeats. Equal values may be shown once. Read-outs that look alike come from different tables or passages of the source.

Key:
[1] = system: patients with advanced solid tumors; conditions: cited from earlier work
[2] = for HL, Mean: transformed into the natural logarithm
Description: (§1) Blood and plasma concentration–time profiles were analyzed by standard non-compartmental methods. Individual PK parameters were tabulated and summarized.
(§2) Both drugs were measured by validated liquid extraction methods followed by ultra-performance liquid chromatography tandem mass-spectrometry detection (Dynakin, Derio, Spain).

[3] = system: patients with advanced solid tumors; assay: Dose escalation and dose-limiting toxicities (phase I, 3+3 design); conditions: combination q3wk; paclitaxel on D1 and D8, lurbinectedin on D1
Description: Furthermore, during dose escalation lurbinectedin was converted to a body surface area (BSA)-based dose.
The DL5 cohort was then expanded, converting lurbinectedin to a BSA-based dose of 2.2 mg/m^2 (calculated by dividing 4.0 mg FD by a BSA of 1.8 m^2).
Patient accrual began in Group A, with dose escalation following a standard 3+3 design. […] During dose escalation in Group A, lurbinectedin was converted to a body surface area (BSA)-based dose (calculated by dividing the allocated FD by a BSA of 1.8 m^2).

[4] = system: SCLC, breast, ovarian, endometrial cancer, NSCLC; conditions: cited from earlier work
patients = conditions: single-agent weekly paclitaxel; cited from earlier work
clinical = conditions: human, in vivo
Description: as §1, §2

[5] = Cycle 1, DL1: paclitaxel 60 / lurbinectedin 3.0 mg FD, mean (SD)
[6] = Cycle 1, DL2: paclitaxel 60 / lurbinectedin 4.0 mg FD, mean (SD)
[7] = Cycle 1, DL3: paclitaxel 60 / lurbinectedin 5.0 mg FD, mean (SD)
[8] = Cycle 1, DL4 (MTD): paclitaxel 80 / lurbinectedin 5.0 mg FD, mean (SD)
[9] = Cycle 1, DL5 (RD): paclitaxel 80 / lurbinectedin 2.2 mg/m^2, mean (SD)
[10] = Cycle 1, DL5 (RD): paclitaxel 80 / lurbinectedin 4.0 mg FD, mean (SD)
[11] = Cycle 1, RD + BEV 80 / 2.2 / 15, mean (SD)
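Wherever AUC is given: blood and plasma drug levels in patients quantified by UPLC tandem mass spectrometry, with PK parameters derived by non-compartmental analysis of concentration–time profiles.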
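Wherever CL is given: blood and plasma drug levels in patients quantified by UPLC tandem mass spectrometry, with PK parameters derived by non-compartmental analysis of concentration–time profiles.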
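Wherever Cmax is given: blood and plasma drug levels in patients quantified by UPLC tandem mass spectrometry, with PK parameters derived by non-compartmental analysis of concentration–time profiles.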
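Wherever HL (terminal half-life) is given: blood and plasma drug levels in patients quantified by UPLC tandem mass spectrometry, with PK parameters derived by non-compartmental analysis of concentration–time profiles.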

Compound: COc1ccc2[nH]c3c(c2c1)CCN[C@]31CS[C@@H]2c3c(OC(C)=O)c(C)c4c(c3[C@H](COC1=O)N1[C@@H]2[C@H]2c3c(cc(C)c(OC)c3O)C[C@@H]([C@@H]1O)N2C)OCO4 [Lurbinectedin]
- recommended dose (RD), single-agent ([1]; 1-h i.v. infusion q3wk): 7.0 mg flat dose (FD) and 7 mg flat dose (FD)
- median half-life ([1]; single agent at the RD (7 mg FD)): 70.6 h
- AUC ([2]; Cycle 1, DL1: paclitaxel 60 mg/m^2 D1,D8,D15 / lurbinectedin 3.0 mg FD, mean (SD)): 405.9 (129.6) h* μg/L
- CL [2, 5]: 7.8 (2.2) L/h
- Cmax [2, 5]: 97.7 (45.5) μg/L
- HL (terminal half-life) [2, 5]: 52.8 (3.7) h
- Vss [2, 5]: 299.4 (84.4) L
- Vz [2, 5]: 602.1 (193.0) L
- AUC ([2]; Cycle 1, DL2: paclitaxel 60 mg/m^2 D1,D8,D15 / lurbinectedin 4.0 mg FD, mean (SD)): 357.9 (174.2) h* μg/L
- CL [2, 6]: 14.2 (9.4) L/h
- Cmax [2, 6]: 74.0 (18.9) μg/L
- HL (terminal half-life) [2, 6]: 82.1 (65.7) h
- Vss [2, 6]: 733.7 (415.1) L
- Vz [2, 6]: 1161 (563.2) L
- AUC ([2]; Cycle 1, DL3: paclitaxel 60 mg/m^2 D1,D8,D15 / lurbinectedin 5.0 mg FD, mean (SD)): 714.0 (416.3) h* μg/L
- CL [2, 7]: 8.8 (4.0) L/h
- Cmax [2, 7]: 127.0 (74.0) μg/L
- HL (terminal half-life) [2, 7]: 46.6 (15.5) h
- Vss [2, 7]: 343.2 (150.1) L
- Vz [2, 7]: 530.8 (164.6) L
- AUC ([2]; Cycle 1, DL4 (MTD): paclitaxel 80 mg/m^2 D1,D8 / lurbinectedin 5.0 mg FD, mean (SD)): 376.2 (151.4) h* μg/L
- CL [2, 8]: 15.2 (6.0) L/h
- Cmax [2, 8]: 109.5 (28.4) μg/L
- HL (terminal half-life) [2, 8]: 38.6 (8.3) h
- Vss [2, 8]: 401.8 (99.1) L
- Vz [2, 8]: 806.0 (243.4) L
- AUC ([2]; Cycle 1, DL5 (RD): paclitaxel 80 mg/m^2 D1,D8 / lurbinectedin 2.2 mg/m^2, mean (SD)): 440.5 (224.4) h* μg/L
- AUC ([2]; Cycle 1, DL5 (RD): paclitaxel 80 mg/m^2 D1,D8 / lurbinectedin 4.0 mg FD, mean (SD)): 436.2 (238.3) h* μg/L
- CL [2, 9]: 11.1 (5.3) L/h
- Cmax [2, 9]: 96.3 (34.7) μg/L
- HL (terminal half-life) [2, 9]: 49.3 (22.5) h
- Vss [2, 9]: 454.9 (222.6) L
- Vz [2, 9]: 727.6 (346.9) L
- CL [2, 10]: 12.0 (7.0) L/h
- Cmax [2, 10]: 83.9 (42.5) μg/L
- HL (terminal half-life) [2, 10]: 47.1 (23.0) h
- Vss [2, 10]: 420.9 (182.7) L
- Vz [2, 10]: 701.8 (268.9) L
- CL [2, 11]: 13.8 (6.5) L/h
- Cmax [2, 11]: 88.7 (28.9) μg/L
- HL (terminal half-life) [2, 11]: 40.0 (15.7) h
- Vss [2, 11]: 408.5 (161.7) L
- Vz [2, 11]: 724.9 (340.5) L
- AUC ([2]; Cycle 1, RD + BEV: paclitaxel 80 mg/m^2 / lurbinectedin 2.2 mg/m^2 / BEV 15 mg/kg, mean (SD)): 351.2 (175.9) h* μg/L
- differences in PK parameters in the presence or absence of BEV ([2]; RD in Group A vs Group B, Cycle 1): No statistically significant differences
- variability of total clearance (CL) ([2]; all dose levels): Wide variability
- dose linearity of maximum concentration (Cmax) and AUC ([2]; dose levels 3.0–5.0 mg FD in combination with paclitaxel): No dose linearity could be established
- potential drug-drug interaction: CL of each drug at the high AUC of the other drug ([2]; paclitaxel with lurbinectedin): slight decrease
- HL, Mean ([2]; Cycle 1, Group A at the RD (31 patients)): 3.802
- HL, Mean ([2]; Cycle 1, Group B with BEV (12 patients)): 3.603
- recommended dose (RD) [3]: 2.2 mg/m^2
- response rate ([4]; monotherapy, BRCA-unselected breast cancer): 9%
- response rate ([4]; monotherapy, ovarian cancer): 14–23%
- response rate ([4]; monotherapy, second-line treatment of patients with SCLC): 35%

Compound: CC(=O)O[C@H]1C(=O)[C@@]2(C)[C@H]([C@H](OC(=O)c3ccccc3)[C@]3(O)C[C@H](OC(=O)[C@H](O)[C@@H](NC(=O)c4ccccc4)c4ccccc4)C(C)=C1C3(C)C)[C@]1(OC(C)=O)CO[C@@H]1C[C@@H]2O [Paclitaxel]
- incidence of peripheral neuropathy, grade 3/4 (patients): 3–21%
- clearance (clinical; 2.2 mg/m2, CL): 525 mL/min
- Vd (clinical; 2.2 mg/m2, Vss): 324 L
- Vd (clinical; 2.2 mg/m2, Vz): 662 L
- clearance (clinical; 3 mg, CL): 437 mL/min
- Cmax (clinical; 3 mg): 2370 ng/mL
- Vd (clinical; 3 mg, Vss): 315 L
- Vd (clinical; 3 mg, Vz): 689 L
- half-life (clinical; 4 mg): 29.2 h
- clearance (clinical; 4 mg, CL): 487 mL/min
- Cmax (clinical; 4 mg): 1500 ng/mL
- Vd (clinical; 4 mg, Vss): 577 L
- Vd (clinical; 4 mg, Vz): 934 L
- clearance (clinical; 5 mg, CL): 575 mL/min
- Cmax (clinical; 5 mg): 1980 ng/mL
- Vd (clinical; 5 mg, Vss): 430 L
- Vd (clinical; 5 mg, Vz): 858 L
- potential drug-drug interaction: CL of each drug at the high AUC of the other drug ([2]; human, in vivo): slight decrease
- variability of total clearance (CL) ([2]; human, in vivo): Wide variability
- Cmax ([2]; human, in vivo, 2.2 mg/m2): 3004 (971.4) μg/L
- CL ([2]; human, in vivo, 4 mg): 31.1 (6.2) L/h
- Cmax ([2]; human, in vivo, 4 mg): 2908 (482.2) μg/L
- Vss ([2]; human, in vivo, 4 mg): 315.3 (89.7) L
- Vz ([2]; human, in vivo, 4 mg): 639.9 (128.6) L
- CL ([2]; human, in vivo, 5 mg): 30.2 (8.6) L/h
- Cmax ([2]; human, in vivo, 5 mg): 3122 (1420) μg/L
- Vss ([2]; human, in vivo, 5 mg): 323.2 (266.8) L
- Vz ([2]; human, in vivo, 5 mg): 627.5 (185.2) L
- response rate ([4]; single-agent weekly 80 mg/m^2/week, metastatic breast cancer): 22–42%
- response rate ([4]; single-agent weekly 80 mg/m^2/week, relapsed ovarian cancer): 21–60%
- response rate ([4]; single-agent weekly 80 mg/m^2/week, relapsed/refractory SCLC): 20–27%

Compound: Bevacizumab
- improvement in ORR with the addition of BEV to chemotherapy vs. chemotherapy alone ([4]; recurrent ovarian cancer and previously untreated NSCLC): 15–20%
